This note sets out measurements from DBAASP.

By MIC is commonly meant the smallest concentration in the dilution series that meets the test's criterion for growth inhibition.

Converted amounts (≈) assume the structure as drawn. Bounds are passed on as bounds.

Test systems include Staphylococcus aureus 1; Bacillus subtilis 168; Escherichia coli B; Pseudomonas aeruginosa; Staphylococcus aureus; Proteus mirabilis; Streptococcus pyogenes; Bacillus subtilis; Escherichia coli; Salmonella typhimurium; Proteus vulgaris; Staphylococcus aureus MR; Escherichia coli D31.
Common to all, as to assay: ≥ marks a high value that may be exact or a test limit, other limits are often not marked, values filed in µg/mL are converted to µM
In experiment [1] the test system is Staphylococcus epidermidis.
In experiment [2] the test system is Staphylococcus aureus ATCC 43300.
Experiment [3] concerns Pseudomonas aeruginosa ATCC 27853.
The subject of experiment [4] is Micrococcus luteus CCM 144.
For experiment [5], the system named is Candida albicans F7-39/IDE99.
Experiment [6] concerns Acinetobacter baumannii KCTC 2508.
The subject of experiment [7] is Klebsiella pneumoniae KCTC 2208.
Experiment [8] has as its system Pseudomonas aeruginosa PAO1.
Experiment [9] deals with Escherichia coli ATCC 25922.
Experiment [10] deals with Streptococcus mutans ATCC 25175.
For experiment [11], the system named is Staphylococcus aureus ATCC 25923.
In experiment [12] the test system is Candida albicans ATCC 10231.
Experiment [13] concerns Bacillus subtilis ATCC 6633.
In experiment [14] the test system is Pseudomonas aeruginosa ATCC 15442.

`CC[C@H](C)[C@H](NC(=O)CN)C(=O)N[C@@H](CC(C)C)C(=O)N[C@@H](CO)C(=O)N[C@@H](CO)C(=O)N[C@@H](CC(C)C)C(=O)N[C@@H](CC(C)C)C(=O)N[C@@H](CCCCN)C(=O)N[C@@H](CCCCN)C(=O)N[C@@H](Cc1c[nH]c2ccccc12)C(=O)N[C@@H](CCCCN)C(=O)N[C@@H](CCCCN)C(=O)N[C@H](C(=O)N[C@H](C(=O)N[C@@H](C)C(=O)N[C@@H](CCCCN)C(N)=O)[C@@H](C)CC)[C@@H](C)CC` [GILSSLLKKWKKIIAK]: the minimal inhibitory concentration (MIC) in experiment [1] came out at 2.7 µM (≈ 4.93 µg/mL); in the experiment on Staphylococcus aureus 1 it was 7.8 µM (≈ 14.2 µg/mL); in [2] it was 20 µM (≈ 36.5 µg/mL); against Bacillus subtilis 168, 7 µM (≈ 12.8 µg/mL); in experiment [3], 5 µM (≈ 9.13 µg/mL); in experiment [4], 3 µM (≈ 5.48 µg/mL). The MIC in experiment [5] was found to be 11 µM (≈ 20.1 µg/mL); against Escherichia coli B, 7.5 µM (≈ 13.7 µg/mL); against Pseudomonas aeruginosa, 7.1 µM (≈ 13 µg/mL); in the experiment on Staphylococcus aureus it was 20 µM (≈ 36.5 µg/mL).
With `CC[C@H](C)[C@H](N)C(=O)N[C@@H](C)C(=O)N[C@@H](CCCN=C(N)N)C(=O)N[C@@H](CCCN=C(N)N)C(=O)N[C@@H](C)C(=O)N[C@@H](CC(C)C)C(=O)N[C@@H](CCCCN)C(=O)N[C@@H](CCCCN)C(=O)N[C@@H](CO)C(=O)N[C@@H](CC(C)C)C(=O)N[C@@H](CCCN=C(N)N)C(=O)N[C@@H](C)C(=O)N[C@@H](CCCN=C(N)N)C(=O)N[C@@H](Cc1cnc[nH]1)C(=O)N[C@H](C(=O)N[C@H](C(=O)N1CCC[C@H]1C(=O)N[C@@H](CCC(N)=O)C(=O)N[C@@H](CS)C(=O)N[C@@H](CCCCN)C(=O)N[C@@H](CCCCN)C(=O)N[C@@H](Cc1ccccc1)C(=O)NCC(=O)N[C@@H](CCCN=C(N)N)C(=O)N[C@@H](CCCN=C(N)N)C(N)=O)[C@@H](C)CC)[C@@H](C)O` [IARRALKKSLRARHTIPQCKKFGRR], the MIC in [6] turned out to be 4 µM (≈ 12 µg/mL); in experiment [3], 8 µM (≈ 23.9 µg/mL); in [7], 4 µM (≈ 12 µg/mL).
For the molecule `CC[C@H](C)[C@H](NC(=O)CN)C(=O)N[C@@H](CC(C)C)C(=O)N[C@@H](CO)C(=O)N[C@@H](CO)C(=O)N[C@@H](CC(C)C)C(=O)N[C@@H](Cc1c[nH]c2ccccc12)C(=O)N[C@@H](CCCCN)C(=O)N[C@@H](CCCCN)C(=O)N[C@@H](CC(C)C)C(=O)N[C@@H](CCCCN)C(=O)N[C@@H](CCCCN)C(=O)N[C@H](C(=O)N[C@H](C(=O)N[C@@H](C)C(=O)N[C@@H](CCCCN)C(N)=O)[C@@H](C)CC)[C@@H](C)CC` [GILSSLWKKLKKIIAK], the MIC in experiment [1] is 2 µM (≈ 3.65 µg/mL); against Staphylococcus aureus 1, 2 µM (≈ 3.65 µg/mL); in experiment [2] it was 5.3 µM (≈ 9.67 µg/mL); with Bacillus subtilis 168, 7 µM (≈ 12.8 µg/mL); in experiment [3] it was 5.3 µM (≈ 9.67 µg/mL); in experiment [4], 3 µM (≈ 5.48 µg/mL). The minimal inhibitory concentration (MIC) was determined as 11 µM (≈ 20.1 µg/mL) in [5], 3.4 µM (≈ 6.21 µg/mL) in the experiment on Escherichia coli B, 8.8 µM (≈ 16.1 µg/mL) against Pseudomonas aeruginosa and 5 µM (≈ 9.13 µg/mL) in the experiment with Staphylococcus aureus.
For the molecule `NC(N)=NCCC[C@H](NC(=O)[C@H](CCCN=C(N)N)NC(=O)[C@H](CCCN=C(N)N)NC(=O)[C@H](CCCN=C(N)N)NC(=O)[C@H](CCCN=C(N)N)NC(=O)[C@H](CCCN=C(N)N)NC(=O)[C@H](CCCN=C(N)N)NC(=O)[C@H](CCCN=C(N)N)NC(=O)[C@H](Cc1c[nH]c2ccccc12)NC(=O)[C@H](Cc1c[nH]c2ccccc12)NC(=O)[C@H](Cc1c[nH]c2ccccc12)NC(=O)[C@@H](N)Cc1c[nH]c2ccccc12)C(=O)O` [WWWWRRRRRRRR], the MIC was 31.8 µM (≈ 64 µg/mL) in the experiment on Proteus mirabilis, 0.124 µM (≈ 0.25 µg/mL) in the experiment on Streptococcus pyogenes, greater than 31.8 µM against Pseudomonas aeruginosa and 4.47 µM (≈ 9 µg/mL) in the experiment on Staphylococcus aureus.
As for `CC(C)C[C@H](NC(=O)[C@H](CCCN=C(N)N)NC(=O)[C@@H]1CCCN1C(=O)[C@H](Cc1cnc[nH]1)NC(=O)[C@@H]1CCCN1C(=O)[C@@H]1CCCN1C(=O)[C@@H](N)CCCN=C(N)N)C(=O)O` [RPPHPRL], the minimal inhibitory concentration (MIC) in experiment [1] was no less than 64 µM; against Bacillus subtilis it was no less than 64 µM; with Streptococcus pyogenes, no less than 64 µM; in the experiment on Escherichia coli, 64 µM (≈ 55.8 µg/mL); with Salmonella typhimurium, no less than 64 µM; with Proteus vulgaris, no less than 64 µM. This molecule yielded a minimal inhibitory concentration (MIC) in the experiment on Pseudomonas aeruginosa of 64 µM (≈ 55.8 µg/mL).
With `CC[C@H](C)[C@H](NC(=O)[C@H](CCCCN)NC(=O)[C@H](CCC(N)=O)NC(=O)[C@H](CC(C)C)NC(=O)[C@@H](N)Cc1ccccc1)C(=O)N[C@H](C(=O)NCC(=O)N[C@@H](C)C(=O)N[C@@H](CC(C)C)C(=O)NCC(=O)N[C@@H](CCCCN)C(=O)N[C@@H](CC(C)C)C(=O)N[C@@H](Cc1ccccc1)C(N)=O)[C@@H](C)CC` [FLQKIIGALGKLF], the MIC amounted to 12.5 µM (≈ 18.1 µg/mL) in experiment [8]; 6.2 µM (≈ 8.97 µg/mL) against Staphylococcus aureus MR; 12.5 µM (≈ 18.1 µg/mL) against Escherichia coli D31; 6.2 µM (≈ 8.97 µg/mL) in experiment [9]; 3.1 µM (≈ 4.49 µg/mL) in [10]; 6.2 µM (≈ 8.97 µg/mL) in experiment [2]. Besides, the minimal inhibitory concentration (MIC) in experiment [11] was 1.6 µM (≈ 2.31 µg/mL); in [12] it was 25 µM (≈ 36.2 µg/mL); in [13], 12.5 µM (≈ 18.1 µg/mL); in experiment [14], 6.2 µM (≈ 8.97 µg/mL).
Turning to `CC[C@H](C)[C@H](N)C(=O)N[C@@H](C)C(=O)N[C@@H](CCCN=C(N)N)C(=O)N[C@@H](CCCN=C(N)N)C(=O)N[C@@H](C)C(=O)N[C@@H](CC(C)C)C(=O)N[C@@H](CCCCN)C(=O)N[C@@H](CCCCN)C(=O)N[C@@H](C)C(=O)N[C@@H](CCCCN)C(=O)N[C@@H](CCCN=C(N)N)C(=O)N[C@@H](C)C(=O)N[C@@H](C)C(=O)N[C@@H](Cc1cnc[nH]1)C(=O)N[C@H](C(=O)N[C@H](C(=O)N1CCC[C@H]1C(=O)N[C@@H](CCC(N)=O)C(=O)N[C@@H](CS)C(=O)N[C@@H](CCCCN)C(=O)N[C@@H](CCCCN)C(=O)N[C@@H](Cc1ccccc1)C(=O)NCC(=O)N[C@@H](CCCN=C(N)N)C(=O)N[C@@H](CCCN=C(N)N)C(N)=O)[C@@H](C)CC)[C@@H](C)O` [IARRALKKAKRAAHTIPQCKKFGRR], the MIC worked out at 4 µM (≈ 11.6 µg/mL) in [6], 2 µM (≈ 5.81 µg/mL) in experiment [3] and 4 µM (≈ 11.6 µg/mL) in experiment [7].
Consider `CC[C@H](C)[C@H](N)C(=O)N[C@@H](C)C(=O)N[C@@H](CCCN=C(N)N)C(=O)N[C@@H](CCCN=C(N)N)C(=O)N[C@@H](CC(N)=O)C(=O)N[C@@H](CC(C)C)C(=O)N[C@@H](CS)C(=O)N[C@@H](C)C(=O)N[C@@H](CO)C(=O)N[C@@H](CC(C)C)C(=O)N[C@@H](CCCN=C(N)N)C(=O)N[C@@H](C)C(=O)N[C@@H](CCCN=C(N)N)C(=O)N[C@@H](Cc1cnc[nH]1)C(=O)N[C@H](C(=O)N[C@H](C(=O)N1CCC[C@H]1C(=O)N[C@@H](CCC(N)=O)C(=O)N[C@@H](CS)C(=O)N[C@@H](CCCCN)C(=O)N[C@@H](CCCCN)C(=O)N[C@@H](Cc1ccccc1)C(=O)NCC(=O)N[C@@H](CCCN=C(N)N)C(=O)N[C@@H](CCCN=C(N)N)C(N)=O)[C@@H](C)CC)[C@@H](C)O` [IARRNLCASLRARHTIPQCKKFGRR], for which the figures for the minimal inhibitory concentration (MIC) in [6], in experiment [3] and in experiment [7] were 16 µM (≈ 47.2 µg/mL), 8 µM (≈ 23.6 µg/mL) and 8 µM (≈ 23.6 µg/mL), respectively.
Turning to `CC[C@H](C)[C@H](NC(=O)[C@H](Cc1ccc(O)cc1)NC(=O)[C@@H](NC(=O)[C@@H]1CCCN1C(=O)[C@@H](N)CCCN=C(N)N)C(C)C)C(=O)N1CCC[C@H]1C(=O)N[C@@H](CCC(N)=O)C(=O)N1CCC[C@H]1C(=O)N[C@@H](CCCN=C(N)N)C(=O)N1CCC[C@H]1C(=O)N1CCC[C@H]1C(=O)N[C@@H](Cc1cnc[nH]1)C(=O)N1CCC[C@H]1C(=O)N[C@@H](CCCN=C(N)N)C(=O)N[C@@H](CC(C)C)C(=O)O` [RPVYIPQPRPPHPRL], the minimum inhibitory concentration (MIC) was no less than 64 µM in [1]; no less than 64 µM against Bacillus subtilis; no less than 64 µM in the experiment with Streptococcus pyogenes; 16 µM (≈ 29.2 µg/mL) against Escherichia coli; 0.5 µM (≈ 0.912 µg/mL) with Salmonella typhimurium; no less than 64 µM with Proteus vulgaris. Moreover, the MIC with Pseudomonas aeruginosa amounted to 64 µM (≈ 117 µg/mL).
